The results in this text go back to US7205295B2, “Benzoxazin-3-ones and derivatives thereof as therapeutic agents” (Warner-Lambert Company LLC, priority 2002, dated 2007).

The experiment has as its target T1, PI3Kγ (p101/p110γ protein) (Homo sapiens, UniProt P48736).
T1 construct: HA; made in house; host or cells: Spodoptera frugiperda (Sf9) cells, baculovirus co-infection
The experiment is described as follows: PI3Kγ In Vitro Kinase Assay. The experiment is classed as biochemical. Conditions: purified recombinant p101/p110γ with G protein β1/γ2 subunits; 20 μM ATP, 25 μM PIP2; 20 minutes at room temperature. The procedure, abridged: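 Sf9-expressed, purified human p101/p110γ (2.7 nM) was activated by Gβ1/γ2 (57.7 nM) and reacted with 20 μM ATP plus [γ-32P]ATP on PIP2 (25 μM)/PE (300 μM) micelles with 10 mM MgCl2 in HEPES buffer. Reactions ran 20 min at room temperature. Filter-captured radiolabeled PIP3 was counted by scintillation.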

T1 sequence (P48736 whole entry, species assumed): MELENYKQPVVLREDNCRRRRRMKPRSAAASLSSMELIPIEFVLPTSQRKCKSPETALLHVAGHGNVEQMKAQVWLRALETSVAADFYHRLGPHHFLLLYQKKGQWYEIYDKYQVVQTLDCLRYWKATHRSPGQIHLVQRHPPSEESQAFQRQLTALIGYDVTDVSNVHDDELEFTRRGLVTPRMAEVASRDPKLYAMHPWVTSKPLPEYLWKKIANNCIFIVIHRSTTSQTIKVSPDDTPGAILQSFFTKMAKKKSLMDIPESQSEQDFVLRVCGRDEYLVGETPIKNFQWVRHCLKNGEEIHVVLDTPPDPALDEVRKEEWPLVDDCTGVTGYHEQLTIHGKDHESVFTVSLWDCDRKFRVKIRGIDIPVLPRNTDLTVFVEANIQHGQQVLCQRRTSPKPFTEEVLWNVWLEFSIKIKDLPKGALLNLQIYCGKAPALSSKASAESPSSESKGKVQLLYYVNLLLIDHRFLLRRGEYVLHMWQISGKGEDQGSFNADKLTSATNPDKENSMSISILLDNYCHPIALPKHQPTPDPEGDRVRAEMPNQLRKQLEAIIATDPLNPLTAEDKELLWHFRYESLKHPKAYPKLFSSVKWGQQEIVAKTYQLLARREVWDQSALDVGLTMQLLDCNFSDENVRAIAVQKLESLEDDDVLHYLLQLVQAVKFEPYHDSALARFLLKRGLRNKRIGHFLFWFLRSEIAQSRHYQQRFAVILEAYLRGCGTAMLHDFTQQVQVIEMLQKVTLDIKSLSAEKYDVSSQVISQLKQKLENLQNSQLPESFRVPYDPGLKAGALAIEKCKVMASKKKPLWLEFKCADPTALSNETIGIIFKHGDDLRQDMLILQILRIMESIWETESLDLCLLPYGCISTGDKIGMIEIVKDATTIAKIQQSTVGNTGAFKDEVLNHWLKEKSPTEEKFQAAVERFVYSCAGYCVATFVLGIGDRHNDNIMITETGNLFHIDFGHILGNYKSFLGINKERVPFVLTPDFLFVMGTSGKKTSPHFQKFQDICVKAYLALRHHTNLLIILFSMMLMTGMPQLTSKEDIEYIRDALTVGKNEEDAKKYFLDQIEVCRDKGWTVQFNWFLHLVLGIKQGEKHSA
T1 sequence (Q8WYR1 whole entry partner, species assumed): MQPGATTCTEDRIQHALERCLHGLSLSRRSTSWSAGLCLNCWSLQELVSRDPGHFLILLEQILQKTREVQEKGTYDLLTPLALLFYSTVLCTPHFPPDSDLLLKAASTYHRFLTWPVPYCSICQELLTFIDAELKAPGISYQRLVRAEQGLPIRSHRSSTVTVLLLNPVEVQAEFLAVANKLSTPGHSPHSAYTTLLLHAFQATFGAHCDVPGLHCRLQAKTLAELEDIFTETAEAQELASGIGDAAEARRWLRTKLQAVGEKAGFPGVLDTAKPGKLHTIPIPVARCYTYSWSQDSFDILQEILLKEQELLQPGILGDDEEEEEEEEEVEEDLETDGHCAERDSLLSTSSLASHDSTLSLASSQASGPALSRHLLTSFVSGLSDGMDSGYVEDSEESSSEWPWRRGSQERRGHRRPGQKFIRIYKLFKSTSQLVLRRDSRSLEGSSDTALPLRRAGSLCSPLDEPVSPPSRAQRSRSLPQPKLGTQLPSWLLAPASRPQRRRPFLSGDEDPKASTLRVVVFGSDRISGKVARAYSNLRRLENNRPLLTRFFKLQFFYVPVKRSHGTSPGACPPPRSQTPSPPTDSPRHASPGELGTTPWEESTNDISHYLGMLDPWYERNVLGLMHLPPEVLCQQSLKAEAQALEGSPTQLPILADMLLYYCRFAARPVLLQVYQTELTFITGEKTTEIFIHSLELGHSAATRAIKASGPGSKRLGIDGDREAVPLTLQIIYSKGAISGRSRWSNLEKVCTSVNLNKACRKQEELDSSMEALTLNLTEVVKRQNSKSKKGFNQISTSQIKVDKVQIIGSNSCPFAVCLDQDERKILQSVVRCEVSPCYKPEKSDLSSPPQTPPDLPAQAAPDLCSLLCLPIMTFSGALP

For the compound `O=C1NC(=S)S/C1=C\c1ccc2c(c1)N(Cc1ccc(C(=O)O)cc1)C(=O)CO2` [Example 288, 4-{3-oxo-6-[4-oxo-2-thioxo-thiazolidin-(5Z)-ylidenemethyl]-2,3-dihydro-benzo[1,4]oxazin-4-ylmethyl}-benzoic acid; Compound with ethane-1,2-diamine], the IC50 (commonly the concentration that inhibits the measured activity by half) stood at 35 nM.
Then `CS(=O)(=O)c1ccc(CN2C(=O)COc3c(F)cc(/C=C4\SC(=S)NC4=O)cc32)cc1` [Example 289, 8-Fluoro-4-(4-methanesulfonyl-benzyl)-6-[4-oxo-2-thioxo-thiazolidin-(5Z)-ylidenemethyl]-4H-benzo[1,4]oxazin-3-one; Compound with Ethane-1,2-diamine], with 10 nM; and `O=C1NC(=S)S/C1=C\c1ccc2oc(=O)n(Cc3ccccc3)c2c1` [Example 290, 3-Benzyl-5-[4-oxo-2-thioxo-thiazolidin-(5Z)-ylidenemethyl]-3H-benzooxazol-2-one; Compound with Ethane-1,2-diamine], with 243 nM.
Then `CS(=O)(=O)c1ccc(Cn2c(=O)oc3ccc(C=C4SC(=S)NC4=O)cc32)cc1` [Example 291, 3-(4-Methanesulfonyl-benzyl)-5-(4-oxo-2-thioxo-thiazolidin-5-ylidenemethyl)-3H-benzoxazol-2-one; Compound with Ethane-1,2-diamine], with 433 nM.
Then `O=C1NC(=S)SC1=Cc1cc(F)c2c(c1)N(Cc1ccc(F)c(C(F)(F)F)c1)C(=O)CO2` [Example 292, 8-Fluoro-4-(4-fluoro-3-trifluoromethyl-benzyl)-6-(4-oxo-2-thioxo-thiazolidin-5-ylidenemethyl)-4-H-benzo[1,4]oxazin-3-one], with 11 nM.
For `CC(C)(O)c1cc(Cl)cc(CN2C(=O)COc3c(F)cc(C=C4SC(=S)NC4=O)cc32)c1` [Example 293, 4-[3-Chloro-5-(1-hydroxy-1-methyl-ethyl)-benzyl]-8-fluoro-6-(4-oxo-2-thioxo-thiazoldin-5-ylidenemethyl)-4H-benzo[1,4]oxazin-3-one; Compound with Ethane-1,2-diamine], the IC50 is 15 nM.
Then `CC(C)(O)c1ccc(CN2C(=O)COc3c(F)cc(C=C4SC(=S)NC4=O)cc32)cc1` [Example 294, 8-Fluoro-4-[4-(1-hydroxy-1-methyl-ethyl)-benzyl]-6-(4-oxo-2-thioxo-thiazolidin-5-ylidenemethyl)-4H-benzo[1,4]oxazin-3-one], with 3 nM.
Then `O=C1NC(=S)SC1=Cc1ccc2c(c1)N(Cc1cc(F)c(O)c(F)c1)C(=O)CO2` [Example 295, 4-(3,5-Difluoro-4-hydroxy-benzyl)-6-(4-oxo-2-thioxo-thiazolidin-5-ylidenemethyl)-4H-benzo[1,4]oxazin-3-one], with 4 nM.
In the case of `O=C(O)CN1C(=O)C(=Cc2cc(F)c3c(c2)N(Cc2ccc(F)c(Cl)c2)C(=O)CO3)SC1=S` [Example 296, {5-[4-(3-Chloro-4-fluoro-benzyl)-8-fluoro-3-oxo-3,4-dihydro-2H-benzo[1,4]oxazin-6-ylmethylene]-4-oxo-2-thioxo-thiazolidin-3-yl}-acetic acid; compound with ethane-1,2-diamine], the half-inhibitory concentration (IC50) came to 3850 nM.
Then `O=C1NC(=S)SC1=Cc1cc(F)c2c(c1)N(Cc1cc(Br)cc(Br)c1)C(=O)CO2` [Example 297, 4-(3,5-Dibromo-benzyl)-8-fluoro-6-(4-oxo-2-thioxo-thiazolidin-5-ylidenemethyl)-4H-benzo[1,4]oxazin-3-one], with 36 nM; and `O=C1NC(=O)C(=Cc2cc(F)c3c(c2)N(Cc2ccc(F)cc2)C(=O)CO3)S1` [Example 298, 5-[8-Fluoro-4-(4-fluoro-benzyl)-3-oxo-3,4-dihydro-2H-benzo[1,4]oxazin-6-ylmethylene]-thiazolidine-2,4-dione], with 1 nM; and `COc1ccc(CN2C(=O)COc3c(F)cc(C=C4SC(=S)NC4=O)cc32)cc1C(F)(F)F` [Example 299, 8-Fluoro-4-(4-methoxy-3-trifluoromethyl-benzyl)-6-(4-oxo-2-thioxo-thiazolidin-5-ylidenemethyl)-4H-benzo[1,4]oxazin-3-one], with 6 nM.
Then `O=C1NC(=S)OC1=Cc1cc(F)c2c(c1)N(Cc1ccc(F)c(Cl)c1)C(=O)CO2` [Example 300, 4-(3-Chloro-4-fluoro-benzyl)-8-fluoro-6-(4-oxo-2-thioxo-oxazolidin-5-ylidenemethyl)-4H-benzo[1,4]oxazin-3-one], with 3 nM.
Then `O=C1NC(=S)SC1=Cc1cc(F)c2c(c1)N(Cc1ccc(F)cc1)C(=O)CO2` [Example 301, 8-Fluoro-4-(4-fluoro-benzyl)-6-(4-oxo-2-thioxo-thiazolidin-5-ylidenemethyl)-4H-benzo[1,4]oxazin-3-one], with 1 nM; and `CC(C)(O)c1cc(CN2C(=O)COc3c(F)cc(C=C4SC(=S)NC4=O)cc32)ccc1F` [Example 302, 8-Fluoro-4-[4-fluoro-3-(1-hydroxy-1-methyl-ethyl)-benzyl]-6-(4-oxo-2-thioxo-thiazolidin-5-ylidenemethyl)-4H-benzo[1,4]oxazin-3-one; Compound with Ethane-1,2-diamine], with 12 nM; and `O=C1NC(=S)SC1=Cc1ccc2c(c1)N(Cc1ccc(F)cc1)C(=O)CO2` [Example 303, 4-(4-Fluoro-benzyl)-6-(4-oxo-2-thioxo-thiazolidin-5-ylidenemethyl)-4H-benzo[1,4]oxazin-3-one], with 2 nM.
Take `CC(C)(O)c1cc(CN2C(=O)COc3ccc(C=C4SC(=S)NC4=O)cc32)ccc1F` [Example 304, 4-[4-Fluoro-3-(1-hydroxy-1-methyl-ethyl)-benzyl]-6-(4-oxo-2-thioxo-thiazolidin-5-ylidenemethyl)-4H-benzo[1,4]oxazin-3-one; Compound with Ethane-1,2-diamine]: the IC50 stood at 8 nM.
Then `CC(C)(O)c1cc(CN2C(=O)COc3ccc(C=C4SC(=O)NC4=O)cc32)ccc1F` [Example 305, 5-{4-[4-Fluoro-3-(1-hydroxy-1-methyl-ethyl)-benzyl]-3-oxo-3,4-dihydro-2H-benzo[1,4]oxazin-6-ylmethylene}-thiazolidine-2,4-dione], with 16 nM; and `Cc1cc(CN2C(=O)COc3ccc(C=C4SC(=S)NC4=O)cc32)ccc1F` [Example 306, 4-(4-Fluoro-3-methyl-benzyl)-6-(4-oxo-2-thioxo-thiazolidin-5-ylidenemethyl)-4H-benzo[1,4]oxazin-3-one], with 1 nM.
Then `O=C1NC(=O)C(=Cc2ccc3c(c2)N(Cc2cccc(Oc4ccccc4F)c2)C(=O)CO3)S1` [Example 307], with 5 nM; and `O=C1NC(=O)C(=Cc2ccc3c(c2)N(Cc2ccc(F)c(Cl)c2)C(=O)CO3)S1` [Example 308, 5-[4-(3-Chloro-4-fluoro-benzyl)-3-oxo-3,4-dihydro-2H-benzo[1,4]oxazin-6-ylmethylene]-thiazolidine-2,4-dione], with 1 nM.
For `O=C1NC(=S)SC1=Cc1cc(F)c2c(c1)N(CCOc1ccc(F)cc1)C(=O)CO2` [Example 310, 8-Fluoro-4-[2-(4-fluoro-phenoxy)-ethyl]-6-(4-oxo-2-thioxo-thiazolidin-5-ylidenemethyl)-4H-benzo[1,4]oxazin-3-one], the IC50 came out at 9 nM.
Then `O=C1NC(=S)SC1=Cc1ccc2c(c1)N(Cc1ccc(F)c(F)c1)C(=O)CO2` [Example 312, 4-(3,4-Difluoro-benzyl)-6-(4-oxo-2-thioxo-thiazolidin-5-ylidenemethyl)-4H-1,4-benzoxazin-3-one], with 3 nM.
Then `COCCN(CCCN1C(=O)COc2c(F)cc(C=C3SC(=S)NC3=O)cc21)CCOC` [Example 313], with 35 nM; and `O=C1NC(=S)SC1=Cc1ccc2c(c1)N(Cc1ccc3nccnc3c1)C(=O)CO2` [Example 314, 6-(4-Oxo-2-thioxo-thiazolidin-5-ylidenemethyl)-4-quinoxalin-6-ylmethyl-4H-benzo[1,4]oxazin-3-one], with 36 nM; and `O=C1NC(=S)SC1=Cc1cc(F)c2c(c1)N(Cc1ccc3nccnc3c1)C(=O)CO2` [Example 315, 8-Fluoro-6-(4-Oxo-2-thioxo-thiazolidin-5-ylidenemethyl)-4-quinoxalin-6-ylmethyl-4H-benzo[1,4]oxazin-3-one; Compound with Ethane-1,2-diamine], with 44 nM.
As to `O=C1COc2ccc(C=C3SC(=S)N(c4ccccc4)C3=O)cc2N1Cc1ccc(Cl)s1` [Example 316, 4-(5-Chloro-thiophen-2-ylmethyl)6-(4-oxo-3-phenyl-2-thioxo-thiazolidin-5-ylidenemethyl)-4H-benzo[1,4]oxazin-3-one], the IC50 came out at 3700 nM.
As for `Cc1cc(CN2C(=O)COc3ccc(C=C4SC(=S)NC4=O)cc32)c(C)o1` [Example 317, 4-(2,5-Dimethyl-furan-3-ylmethyl)-6-(4-oxo-2-thioxo-thiazolidin-5-ylidenemethyl)-4H-benzo[1,4]oxazin-3-one], the IC50 was 21 nM.
Then `Cc1cc(CN2C(=O)COc3c(F)cc(C=C4SC(=S)NC4=O)cc32)c(C)o1` [Example 318, 4-(2,5-Dimethyl-furan-3-ylmethyl)-8-fluoro-6-(4-oxo-2-thioxo-thiazolidin-5-ylidenemethyl)-4H-benzo[1,4]oxazin-3-one], with 25 nM.
Then `O=C1NC(=S)SC1=Cc1cc(F)c2c(c1)N(Cc1ccc(Cl)s1)C(=O)CO2` [Example 319, 4-(5-Chloro-thiophen-2-ylmethyl)-8-fluoro-6-(4-oxo-2-thioxo-thiazolidin-5-ylidenemethyl)-4H-benzo[1,4]oxazin-3-one], with 5 nM; and `Cc1cc(CN2C(=O)COc3ccc(C=C4SC(=S)N(CC(=O)O)C4=O)cc32)c(C(F)(F)F)o1` [Example 321, {5-[4-(5-Methyl-2-triflouromethyl-furan-3-ylmethyl)-3-oxo-3,4-dihydro-2H-benzo[1,4]oxazin-6-ylmethylene]-4-oxo-2-thioxo-thiazolidin-3-yl}-acetic acid; Compound with ethane-1,2-diamine], with 9730 nM.
